According to patent publication US12428406B2 (PMV Pharmaceuticals, Inc., priority 2019, dated 2025):

These compounds were tested against T1, p53 Y220C (Homo sapiens, UniProt P04637, Y220C) (assay: In vitro DNA binding activity assay (HTRF / TR-FRET): stabilization of p53 Y220C and increase of its DNA binding activity). Conditions: recombinant His-tagged p53 Y220C DNA binding domain (aa 94-312), biotin-labeled consensus DNA, incubated at 27° C. or 29° C. for 60 min.
T1 construct: The recombinant protein was a truncation mutant containing only amino acids 94-312 of p53; made in house; host or cells: E. coli
Assay type: biochemical
Procedure, shortened: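 Stabilization of the mutant is inferred from increased binding of His-tagged p53 Y220C to a biotin-labeled consensus DNA, detected by HTRF with europium-streptavidin and APC-anti-His antibody. The concentration giving a 50% rise over compound-free binding is reported as SC150.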

T1 sequence (P04637 94-312, change not shown): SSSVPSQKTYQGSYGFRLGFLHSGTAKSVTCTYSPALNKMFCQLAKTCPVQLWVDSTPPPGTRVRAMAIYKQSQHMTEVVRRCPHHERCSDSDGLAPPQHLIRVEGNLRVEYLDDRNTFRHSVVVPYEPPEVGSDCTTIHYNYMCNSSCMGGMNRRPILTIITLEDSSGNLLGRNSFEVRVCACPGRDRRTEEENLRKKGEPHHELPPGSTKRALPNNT

SMILES | SC150 (concentration of the compound required to increase the DNA binding activity by 50%)
CCC(=O)OCC(CN1CCC(Nc2cccc3c2cc(C#CCNc2ccc(S(C)(=O)=O)cc2OC)n3CC(F)(F)F)CC1)OC(=O)CC (stereo not shown) [Compound 586A, 1-{4-[(2-{3-[(4-methanesulfonyl-2-methoxyphenyl)amino]prop-1-yn-1-yl}-1-(2,2,2-trifluoroethyl)-1H-indol-4-yl)amino]piperidin-1-yl}-3-(propanoyloxy)propan-2-yl propanoate] | + (+ = 0 μM ≤ SC150 < 0.05 μM)
CCC(=O)OCC(CN1CCC(Nc2cccc3c2cc(C#CCNc2ccc(S(N)(=O)=O)cc2OC)n3CC(F)(F)F)CC1)OC(=O)CC (stereo not shown) [Compound 587A, 1-{4-[(2-{3-[(2-methoxy-4-sulfamoylphenyl)amino]prop-1-yn-1-yl}-1-(2,2,2-trifluoroethyl)-1H-indol-4-yl)amino]piperidin-1-yl}-3-(propanoyloxy)propan-2-yl propanoate] | + (+ = 0 μM ≤ SC150 < 0.05 μM)
COc1cc(S(C)(=O)=O)ccc1NCC#Cc1cc2c(NC3CCN(CC(COC(=O)C(C)C)OC(=O)C(C)C)CC3)cccc2n1CC(F)(F)F (stereo not shown) [Compound 588A, 1-{4-[(2-{3-[(4-methanesulfonyl-2-methoxyphenyl)amino]prop-1-yn-1-yl}-1-(2,2,2-trifluoroethyl)-1H-indol-4-yl)amino]piperidin-1-yl}-3-[(2-methylpropanoyl)oxy]propan-2-yl 2-methylpropanoate] | +++ (+++ = 0.1 μM ≤ SC150 < 0.2 μM)
COc1cc(S(N)(=O)=O)ccc1NCC#Cc1cc2c(NC3CCN(CC(COC(=O)C(C)C)OC(=O)C(C)C)CC3)cccc2n1CC(F)(F)F (stereo not shown) [Compound 589A, 1-{4-[(2-{3-[(2-methoxy-4-sulfamoylphenyl)amino]prop-1-yn-1-yl}-1-(2,2,2-trifluoroethyl)-1H-indol-4-yl)amino]piperidin-1-yl}-3-[(2-methylpropanoyl)oxy]propan-2-yl 2-methylpropanoate] | ++ (++ = 0.05 μM ≤ SC150 < 0.1 μM)
COc1cc(S(C)(=O)=O)ccc1NCC#Cc1cc2c(NC3CCN(CC(O)COC(=O)C(C)C)CC3)cccc2n1CC(F)(F)F (stereo not shown) [Compound 592A, 2-hydroxy-3-{4-[(2-{3-[(4-methanesulfonyl-2-methoxyphenyl)amino]prop-1-yn-1-yl}-1-(2,2,2-trifluoroethyl)-1H-indol-4-yl)amino]piperidin-1-yl}propyl 2-methylpropanoate] | + (+ = 0 μM ≤ SC150 < 0.05 μM)
COCC(CN1CCC(Nc2cccc3c2cc(C#CCNc2ccc(S(C)(=O)=O)cc2OC)n3CC(F)(F)F)CC1)OC(C)=O (stereo not shown) [Compound 593A, 1-{4-[(2-{3-[(4-methanesulfonyl-2-methoxyphenyl)amino]prop-1-yn-1-yl}-1-(2,2,2-trifluoroethyl)-1H-indol-4-yl)amino]piperidin-1-yl}-3-methoxypropan-2-yl acetate] | + (+ = 0 μM ≤ SC150 < 0.05 μM)
CCC(=O)OCC(O)CN1CCC(Nc2cccc3c2cc(C#CCNc2ccc(S(C)(=O)=O)cc2OC)n3CC(F)(F)F)CC1 (stereo not shown) [Compound 594A] | + (+ = 0 μM ≤ SC150 < 0.05 μM)
COc1cc(S(=O)(=O)N(CCO)CCO)ccc1NCC#Cc1cc2c(NC3CCN(CC(C)O)CC3)cccc2n1CC(F)(F)F (stereo not shown) [Compound 595A, N,N-bis(2-hydroxyethyl)-4-{[3-(4-{[1-(2-hydroxypropyl)piperidin-4-yl]amino}-1-(2,2,2-trifluoroethyl)-1H-indol-2-yl)prop-2-yn-1-yl]amino}-3-methoxybenzene-1-sulfonamide] | + (+ = 0 μM ≤ SC150 < 0.05 μM)
CNC(=O)c1ccc(NCC#Cc2cc3c(NC4CCN(CC(C)O)CC4)cccc3n2CC(F)(F)F)c(OC)c1 (stereo not shown) [Compound 596A, 4-{[3-(4-{[1-(2-hydroxypropyl)piperidin-4-yl]amino}-1-(2,2,2-trifluoroethyl)-1H-indol-2-yl)prop-2-yn-1-yl]amino}-3-methoxy-N-methylbenzamide] | + (+ = 0 μM ≤ SC150 < 0.05 μM)
COc1cc(S(N)(=O)=O)ccc1NCC#Cc1cc2c(NC3CCN(CC(C)OC(=O)C(C)C)CC3)cccc2n1CC(F)(F)F (stereo not shown) [Compound 598A, 1-{4-[(2-{3-[(2-methoxy-4-sulfamoylphenyl)amino]prop-1-yn-1-yl}-1-(2,2,2-trifluoroethyl)-1H-indol-4-yl)amino]piperidin-1-yl}propan-2-yl 2-methylpropanoate] | + (+ = 0 μM ≤ SC150 < 0.05 μM)
COc1cc(S(N)(=O)=O)ccc1NCC#Cc1cc2c(NC3CCN(CC(C)OC(C)=O)CC3)cccc2n1CC(F)(F)F (stereo not shown) [Compound 599A, 1-{4-[(2-{3-[(2-methoxy-4-sulfamoylphenyl)amino]prop-1-yn-1-yl}-1-(2,2,2-trifluoroethyl)-1H-indol-4-yl)amino]piperidin-1-yl}propan-2-yl acetate] | + (+ = 0 μM ≤ SC150 < 0.05 μM)
COc1cc(S(N)(=O)=O)ccc1NCC#Cc1cc2c(NC3CCN(CCOC(=O)C(C)C)CC3)cccc2n1CC(F)(F)F [Compound 600A, 2-{4-[(2-{3-[(2-methoxy-4-sulfamoylphenyl)amino]prop-1-yn-1-yl}-1-(2,2,2-trifluoroethyl)-1H-indol-4-yl)amino]piperidin-1-yl}EtOAc] | + (+ = 0 μM ≤ SC150 < 0.05 μM)
CNC(=O)c1ccc(NCC#Cc2cc3c(NC4CCN(CC(O)COC)CC4)cccc3n2CC(F)(F)F)c(OC)c1 (stereo not shown) [Compound 601A, 4-{[3-(4-{[1-(2-hydroxy-3-methoxypropyl)piperidin-4-yl]amino}-1-(2,2,2-trifluoroethyl)-1H-indol-2-yl)prop-2-yn-1-yl]amino}-3-methoxy-N-methylbenzamide] | + (+ = 0 μM ≤ SC150 < 0.05 μM)
CCC(=O)OC(COC)CN1CCC(Nc2cccc3c2cc(C#CCNc2ccc(S(C)(=O)=O)cc2OC)n3CC(F)(F)F)CC1 (stereo not shown) [Compound 602A, 1-{4-[(2-{3-[(4-methanesulfonyl-2-methoxyphenyl)amino]prop-1-yn-1-yl}-1-(2,2,2-trifluoroethyl)-1H-indol-4-yl)amino]piperidin-1-yl}-3-methoxypropan-2-yl propanoate] | + (+ = 0 μM ≤ SC150 < 0.05 μM)
COCC(CN1CCC(Nc2cccc3c2cc(C#CCNc2ccc(S(C)(=O)=O)cc2OC)n3CC(F)(F)F)CC1)OC(=O)C(C)C (stereo not shown) [Compound 603A, 1-{4-[(2-{3-[(4-methanesulfonyl-2-methoxyphenyl)amino]prop-1-yn-1-yl}-1-(2,2,2-trifluoroethyl)-1H-indol-4-yl)amino]piperidin-1-yl}-3-methoxypropan-2-yl 2-methylpropanoate] | + (+ = 0 μM ≤ SC150 < 0.05 μM)
COCC(CN1CCC(Nc2cccc3c2cc(C#CCNc2ccc(S(N)(=O)=O)cc2OC)n3CC(F)(F)F)CC1)OC(=O)C(C)C (stereo not shown) [Compound 604A, 1-methoxy-3-{4-[(2-{3-[(2-methoxy-4-sulfamoylphenyl)amino]prop-1-yn-1-yl}-1-(2,2,2-trifluoroethyl)-1H-indol-4-yl)amino]piperidin-1-yl}propan-2-yl 2-methylpropanoate] | + (+ = 0 μM ≤ SC150 < 0.05 μM)
CCC(=O)OC(C)CN1CCC(Nc2cccc3c2cc(C#CCNc2ccc(S(N)(=O)=O)cc2OC)n3CC(F)(F)F)CC1 (stereo not shown) [Compound 605A, 1-{4-[(2-{3-[(2-methoxy-4-sulfamoylphenyl)amino]prop-1-yn-1-yl}-1-(2,2,2-trifluoroethyl)-1H-indol-4-yl)amino]piperidin-1-yl} propan-2-yl propanoate] | + (+ = 0 μM ≤ SC150 < 0.05 μM)
COCC(O)CN1CCC(Nc2cccc3c2cc(C#CCNc2ccc(S(=O)(=O)NC(C)=O)cc2OC)n3CC(F)(F)F)CC1 (stereo not shown) [Compound 606A, N-(4-{[3-(4-{[1-(2-hydroxy-3-methoxypropyl)pipcridin-4-yl]amino}-1-(2,2,2-trifluoroethyl)-1H-indol-2-yl)prop-2-yn-1-yl]amino}-3-methoxybenzenesulfonyl) acetamide] | + (+ = 0 μM ≤ SC150 < 0.05 μM)
CCC(=O)NS(=O)(=O)c1ccc(NCC#Cc2cc3c(NC4CCN(CC(O)COC)CC4)cccc3n2CC(F)(F)F)c(OC)c1 (stereo not shown) [Compound 607A, N-(4-{[3-(4-{[1-(2-hydroxy-3-methoxypropyl)piperidin-4-yl]amino}-1-(2,2,2-trifluoroethyl)-1H-indol-2-yl)prop-2-yn-1-yl]amino}-3-methoxybenzenesulfonyl) propanamide] | + (+ = 0 μM ≤ SC150 < 0.05 μM)
CCC(=O)OCCN1CCC(Nc2cccc3c2cc(C#CCNc2ccc(S(N)(=O)=O)cc2OC)n3CC(F)(F)F)CC1 [Compound 608A, 2-{4-[(2-{3-[(2-methoxy-4-sulfamoylphenyl)amino]prop-1-yn-1-yl}-1-(2,2,2-trifluoroethyl)-1H-indol-4-yl)amino]piperidin-1-yl}ethyl propanoate] | + (+ = 0 μM ≤ SC150 < 0.05 μM)
CNS(=O)(=O)c1ccc(NCC#Cc2cc3c(NC4CCN(CC(O)COC)CC4)cccc3n2CC(F)(F)F)c(OC)c1 (stereo not shown) [Compound 609A] | + (+ = 0 μM ≤ SC150 < 0.05 μM)
CCC(=O)OC(COC)CN1CCC(Nc2cccc3c2cc(C#CCNc2ccc(S(N)(=O)=O)cc2OC)n3CC(F)(F)F)CC1 (stereo not shown) [Compound 610A, 1-methoxy-3-{4-[(2-{3-[(2-methoxy-4-sulfamoylphenyl)amino]prop-1-yn-1-yl}-1-(2,2,2-trifluoroethyl)-1H-indol-4-yl)amino]piperidin-1-yl} propan-2-yl propanoate] | + (+ = 0 μM ≤ SC150 < 0.05 μM)
